Experimental data taken from patent publication US20240374487A1, “ANTI-AGING AGENT, COSMETIC PRODUCT, WET TOWEL, AND HYGIENE PRODUCT” (VB JAPAN TECHNOLOGY CO., LTD., priority 2021, published 2024).

Key:
FEEL-1 = FEEL-1 mRNA level by qRT-PCR in AGE-treated fibroblasts; type: cell-based, human; conditions: co-existence with AGE 100 μg/mL, 4 hours, compared with AGE single stimulation group
Experimental: (§1) Normal human dermal fibroblasts (NHDF), juvenile foreskin (C-12300, PromoCell) were cultured in a dedicated medium, Fibroblast Growth Medium (C-23010, PromoCell) at 37° C. in a 5% CO2 incubator.
(§2) First, as a co-existence group of VB and AGE, normal human dermal fibroblasts were treated with AGE (100 μg/mL), and the above VB2 (concentration after dilution: 115 μg/ml) and VB3 (concentration after dilution: 1000 μg/mL) diluted to an accurate 1/1000 amount were each added and retained at 37° C. for 4 hours. […]
(§3) Then, total RNA was extracted from the cells using Trizol reagent (Ambion), and mRNA levels of AGE receptor (FEEL-1, FEEL-2, CD-36, AGE-R1, AGE-R2, AGE-R3 and RAGE) and heat shock protein (Hsp104, gp96, Hsp90, Hsp70, Hsp60, and Hsp32) were measured by qRT-PCR (one-step quantitative reverse transcription-polymerase chain reaction) method. […]
(§4) The qRT-PCR method used for the measurement of AGE receptor, heat shock protein, aquaporin, hyaluronic acid, and Elastin will be described. In the qRT-PCR method, 500 ng of the obtained total RNA was used as a template for PCR, and one step RT-PCR capable of performing CDNA synthesis by a reverse transcription reaction (Reverse Transcriptase; RT reaction) and quantitative PCR in one test tube was performed using Luna Universal One-Step qRT-PCR Kit. […]

SOD = SOD amount against hydrogen peroxide (SOD Assay Kit); type: cell-based, human; conditions: added before and after 0.2 mM hydrogen peroxide, 1-300 μg/mL (H2O2 only 56% of Control)
Experimental: Superoxide (SOD) was measured using SOD Assay Kit (Cayman Chemical, Ann arbor, MI, USA). Cells that had been subjected to various treatments were incubated for 24 hours, and then a Lysis buffer was added, homogenized, and centrifuged. Then, 10 μL of each sample was mixed with 200 μL of xanthine oxidase at room temperature. After 30 minutes, the absorbance at 450 nm was measured.
(§5) Normal human dermal fibroblasts were cultured for 2 hours in a culture solution to which 0.2 mM hydrogen peroxide was added, then washed off with PBS, and replaced with a normal medium to continue the cultivation. VB2 and VB3 were each added at any timing before or after hydrogen peroxide was added, and co-cultured for 4 hours. Thereafter, the cells or the culture solution were recovered.
According to the procedure described in “Measurement of Cell Viability” above, normal human dermal fibroblasts were treated and cultured (co-culture), and cells or the culture solution was recovered. The concentrations of VB2 and VB3 used and the notation of the samples in FIGS. 6 and 7, which are graphs showing the results, are also similar to the above “Measurement of Cell Viability”. […]

[1] = test system: normal human dermal fibroblasts; assay: Cell viability under hydrogen peroxide oxidative stress (Cell counting-8 kit); type: cell-based; conditions: for cell viability, trend: 1-300 μg/mL
Experimental: as §1, §5
In FIG. 5 which is a graph showing the results, a sample obtained by adding VB2 or VB3 after adding hydrogen peroxide was denoted as “H2O2-VB2” and “H2O2-VB3”, respectively, and a sample obtained by adding hydrogen peroxide after adding VB2 or VB3 was denoted as “VB2-H2O2” and “VB3-H2O2”, respectively.
Here, VB2 and VB3 were added at concentrations of 1 μg/mL, 10 μg/mL, 100 μg/mL, and 300 μg/mL, respectively.
The normal human dermal fibroblasts to which neither hydrogen peroxide nor VB2 nor VB3 was added were treated in the same manner as described above, and measured as Control. In addition, a sample to which VB2 or VB3 was not added (in FIG. 5, it is denoted as “H2O2”) was also treated in the same manner as described above, and measurement was performed.
The number of surviving cells in normal human dermal fibroblasts was measured using Cell counting −8 kit (DOJINDO: , Japan).

hyaluronic acid = assay: Hyaluronic acid secreted into culture supernatant (ELISA); type: cell-based, human
Experimental: as §5
(§6) According to the procedure described in “Measurement of Cell Viability” above, normal human dermal fibroblasts were treated and cultured (co-culture), and cells or the culture solution was recovered. The concentrations of VB2 and VB3 used and the notation of the samples in FIGS. 10 and 11, which are graphs showing the results, are also similar to the above “Measurement of Cell Viability”.
(§7) The production amounts of hyaluronic acid and Elastin were measured by an ELISA method. The results of measuring the amount of hyaluronic acid secreted from normal human dermal fibroblasts into the culture supernatant by the ELISA method are shown in FIG. 10, and the results of measuring the amount of intracellular Elastin production by the ELISA method are shown in FIG. 11.

AQP-1 = AQP-1 mRNA level under oxidative stress (qRT-PCR); type: cell-based, human
Experimental: as §5
(§8) According to the procedure described in “Measurement of Cell Viability” above, normal human dermal fibroblasts were treated and cultured (co-culture), and cells or the culture solution was recovered. The notation of the sample in FIGS. 8 and 9, which are graphs showing the results, is also the same as in the “Measurement of Cell Viability” described above.
(§9) The measurement of aquaporin was performed for AQP-1 and AQP-3 by a qRT-PCR method, and the measurement result was obtained by a ΔΔCt method. […] The qRT-PCR method is s specifically described in “qRT-PCR method” described later.
(§10) The qRT-PCR method used for the measurement of AGE receptor, heat shock protein, aquaporin, hyaluronic acid, and Elastin will be described. In the qRT-PCR method, 500 ng of the obtained total RNA was used as a template for PCR, and one step RT-PCR capable of performing CDNA synthesis by a reverse transcription reaction (Reverse Transcriptase; RT reaction) and quantitative PCR in one test tube was performed using Luna Universal One-Step qRT-PCR Kit.
(§11) As a PCR device, Thermal Cycler Dice Real Time System II manufactured by Takara was used. As one reaction system, 10 μL of Luna Universal One-Step Reaction Mix (2×), 1 μL of Luna WarmStart RT Enzyme Mix (20×), 0.8 μL of Forward primer (10 μM), 0.8 μL of Reverse primer, and Total RNA as a template for the PCR were used, and the total amount was adjusted to 20 μL in Nuclease-free Water.
(§12) The reaction was performed under the conditions of 1 cycle of 30 seconds at 95° C., and further cycles of 5 seconds at 95° C. and 30 seconds at 60° C. for 50 cycles. A variation in mRNA expression by 4 times or more (2 cycles as PCR reaction) was determined as a significant difference.

AQP-3 = AQP-3 mRNA level under oxidative stress (qRT-PCR); type: cell-based, human
Experimental: as §5, §8, §9, §10, §11, §12

[2] = test system: heat shock protein (Hsp104, gp96, Hsp90, Hsp70, Hsp60, and Hsp32); assay: mRNA levels of heat shock proteins by qRT-PCR in fibroblasts; type: cell-based, human; conditions: 4 hours
Experimental: as §1
First, as a co-existence group of VB and AGE, normal human dermal fibroblasts were treated with AGE (100 μg/mL), and the above VB2 (concentration after dilution: 115 μg/ml) and VB3 (concentration after dilution: 1000 μg/mL) diluted to an accurate 1/1000 amount were each added and retained at 37° C. for 4 hours.
In addition, as the VB single stimulation group, normal human dermal fibroblasts were not treated with AGE, and the above VB2 and VB3 diluted to an accurate 1/1000 amount were each added and held at 37° C. for 4 hours. Furthermore, as the AGE single stimulation group, normal human dermal fibroblasts were treated with AGE and kept at 37° C. for 4 hours without addition of VB2 or VB3. In addition, as an untreated group, normal human dermal fibroblasts were not treated with AGE, and were kept at 37° C. for 4 hours without adding VB2 or VB3.
Then, total RNA was extracted from the cells using Trizol reagent (Ambion), and mRNA levels of AGE receptor (FEEL-1, FEEL-2, CD-36, AGE-R1, AGE-R2, AGE-R3 and RAGE) and heat shock protein (Hsp104, gp96, Hsp90, Hsp70, Hsp60, and Hsp32) were measured by qRT-PCR (one-step quantitative reverse transcription-polymerase chain reaction) method.
The measurement results for AGE receptor are shown in FIG. 1, and the measurement results for heat shock protein are shown in FIG. 2. In FIG. 1 and FIG. 2, for the co-existence group of AGE and VB, samples to which VB2 and VB3 were added are indicated as VB2(+)AGE and VB3(+)AGE, respectively, and these values were shown in comparison with the AGE single stimulation group. In addition, for the VB single stimulation group, samples to which VB2 and VB3 were added were indicated as VB2 alone and VB3 alone, respectively, and these values were shown in comparison with the untreated group.
as §10
As a PCR device, Thermal Cycler Dice Real Time System II manufactured by Takara was used. […]
as §12

FEEL-2 = FEEL-2 mRNA level by qRT-PCR in AGE-treated fibroblasts; type: cell-based, human; conditions: co-existence with AGE 100 μg/mL, 4 hours, compared with AGE single stimulation group
Experimental: as §1, §2, §3, §4

intracellular ROS [3] = assay: Intracellular ROS against AGE (DCF-DA fluorescence); type: cell-based, human; conditions: AGE 100 μg/mL, 4 hours, FIG. 3
Experimental: as §1
Normal human dermal fibroblasts were treated with AGE (100 μg/mL) and maintained at 37° C. for 4 hours with the addition of VB2 and VB3, respectively. Here, VB2 and VB3 were added at concentrations of 1 μg/mL, 10 μg/mL, 100 μg/mL, and 300 μg/mL, respectively. In FIGS. 3 and 4, which are graphs showing the results, those to which VB2was added were denoted as “VB2-AGE”, and those to which VB3 was added were denoted as “VB3-AGE”.
As Control, measurement was also performed on normal human dermal fibroblasts which were not treated with AGE and were held at 37° C. for 4 hours without addition of VB2 or VB3, and as an AGE single stimulation group, measurement was also performed on normal human dermal fibroblasts which were treated with AGE (100 μg/mL) and were held at 37° C. for 4 hours without addition of VB2 or VB3 (in FIGS. 3 and 4, it is denoted as “AGE”.).
Measurement of intracellular ROS was performed using fluorescence using dichlorofluorescin diacetate (DCF-DA; Invitrogen, Carlsbad, CA, USA). […] The intracellular ROS level was measured at an excitation wavelength of 525 nm using fluorescence intensity using the micro plate reader (SYNERGY/HT, BioTek, Japan).

intracellular ROS [4] = assay: Intracellular ROS production against hydrogen peroxide (DCF-DA); type: cell-based, human; conditions: added before and after 0.2 mM hydrogen peroxide, 1-300 μg/mL
Experimental: Measurement of intracellular ROS was performed using fluorescence using dichlorofluorescin diacetate (DCF-DA; Invitrogen, Carlsbad, CA, USA). Specifically, cells were washed with PBS, and then incubated with 10 μM DCF-DA at 37° C. for 20 minutes. The intracellular ROS level was measured at an excitation wavelength of 525 nm using fluorescence intensity using the micro plate reader (SYNERGY/HT, BioTek, Japan).
as §5
According to the procedure described in “Measurement of Cell Viability” above, normal human dermal fibroblasts were treated and cultured (co-culture), and cells or the culture solution was recovered. The concentrations of VB2 and VB3 used and the notation of the samples in FIGS. 6 and 7, which are graphs showing the results, are also similar to the above “Measurement of Cell Viability”.
The measurement of intracellular ROS and the measurement of superoxide (SOD) were performed by the same methods as the methods described in “Measurement of Intracellular Reactive Oxygen (ROS) Production and Superoxide (SOD) against AGE” above, respectively.
FIGS. 6 and 7 show the results of each sample when Control is 100%.

[5] = test system: AGE receptor (FEEL-1, FEEL-2, CD-36, AGE-R1, AGE-R2, AGE-R3 and RAGE); assay: mRNA levels of AGE receptors by qRT-PCR in normal human dermal fibroblasts; type: cell-based; conditions: VB alone, no AGE, 37° C. 4 hours, compared with untreated group
Experimental: as §1, §2, §3, §4

RAGE = RAGE mRNA level by qRT-PCR in AGE-treated fibroblasts; type: cell-based, human; conditions: co-existence with AGE 100 μg/mL, 4 hours, compared with AGE single stimulation group
Experimental: as §1, §2, §3, §4

Elastin = assay: Intracellular Elastin production (ELISA); type: cell-based, human
Experimental: as §5, §6, §7

[6] = added in advance before oxidative stress, compared with addition after
[7] = added before or after 0.2 mM hydrogen peroxide
[8] = added in advance before applying oxidative stress

Na9[SbW9O33] [VB3]
mRNA level of FEEL-1 (FEEL-1): significantly increased | SOD amount (SOD): tended to be recovered in a concentration-dependent manner | maximum cell viability ([1]; added after 0.2 mM hydrogen peroxide, 300 μg/mL, % of Control (H2O2 only 59%)): 78% | cell viability, trend ([1]; added after 0.2 mM hydrogen peroxide): increased in a concentration-dependent manner | cell viability, trend ([1]; added in advance before 0.2 mM hydrogen peroxide): significant increase in a concentration-dependent manner | amount of hyaluronic acid (hyaluronic acid; 0.2 mM hydrogen peroxide oxidative stress, culture supernatant): tended to be recovered | hyaluronic acid repair ability, addition before vs after oxidative stress (hyaluronic acid; [6]): tended to have a stronger repair ability | mRNA level of AQP-1 (AQP-1; [7]): increased | AQP-1 mRNA repair ability, addition before vs after oxidative stress (AQP-1; [6]): tended to have a stronger repair ability | mRNA level of AQP-3 (AQP-3; [7]): increased | AQP-3 mRNA repair ability, addition before vs after oxidative stress (AQP-3; [6]): tended to have a stronger repair ability | mRNA expression of Hsp ([2]; VB alone, no AGE, compared with untreated group): did not affect | mRNA levels of all Hsps other Hsp 90 among the examined Hsps ([2]; co-existence with AGE 100 μg/mL, compared with AGE single stimulation group): significantly increased | mRNA level of FEEL-2 (FEEL-2): significantly increased | intracellular ROS under AGE stimulation (intracellular ROS [3]): suppress the increase in ROS | ROS production (intracellular ROS [4]): suppressed in a concentration-dependent manner | mRNA expression of AGE receptor [5]: did not affect | mRNA level of RAGE (RAGE): significantly increased | Elastin production amount (Elastin; added after application of oxidative stress (H2O2 only 56% of Control)): could not be recovered | Elastin production amount (Elastin; [8]): significant recovery | concentration at which Elastin production amount was significantly higher than Control (Elastin; [8]): 300 µg/mL
